Measured values: patent US20060178323A1, “Methods for the treatment of chronic pain and compositions therefor” (priority 2002, published 2006)

What was measured:
[1] = tested on: mechanical hyperalgesia in the Seltzer model of neuropathic pain in the rat; test: Seltzer model, perioperative administration of Compound A on neuropathic hyperalgesia; assay type: in vivo; conditions: for Paw withdrawal threshold: ipsilateral paw
Description: (§1) Two animal models of chronic neuropathic pain may be used that involve some form of peripheral nerve damage. In the Seltzer model (Seltzer et al. (1990) Pain 43: 205-218) rats are anaesthetised and a small incision made mid-way up one thigh (usually the left) to expose the sciatic nerve. The nerve is carefully cleared of surrounding connective tissues at a site near the trochanter just distal to the point at which the posterior biceps semitendinosus nerve branches off the common sciatic nerve. A 7-0 silk suture is inserted into the nerve with a ⅜ curved, reversed-cutting mini-needle, and tightly ligated so that the dorsal ⅓ to ½ of the nerve thickness is held within the ligature. The muscle and skin are closed with sutures and clips and the wound dusted with antibiotic powder. In sham animals the sciatic nerve is exposed but not ligated and the wound closed as in nonsham animals.
(§2) In all chronic pain models (inflammatory and neuropathic) mechanical hyperalgesia is assessed by measuring paw withdrawal thresholds of both hindpaws to an increasing pressure stimulus using an Analgesymeter (Ugo-Basile, Milan). Mechanical allodynia is assessed by measuring withdrawal thresholds to non-noxious mechanical stimuli applied with von Frey hairs to the plantar surface of both hindpaws. Thermal hyperalgesia is assessed by measuring withdrawal latencies to a noxious thermal stimulus applied to the underside of each hindpaw. With all models, mechanical hyperalgesia and allodynia and thermal hyperalgesia develop within 1-3 days following surgery and persist for at least 50 days. For the assays described herein, drugs may be applied before and after surgery to assess their effect on the development of hyperalgesia, particularly approximately 14 days following surgery, to determine their ability to reverse established hyperalgesia.
(§3) The percentage reversal of hyperalgesia is calculated as follows: [formula] In the experiments disclosed herein, Wistar rats (male) are employed in pain models described above. Rats weigh approximately 120-140 grams at the time of surgery. All surgery is performed under enflurane/O2 inhalation anaesthesia. In all cases the wound is closed after the procedure and the animal allowed to recover. In all pain models employed, after a few days in all but the sham operated animals, a marked mechanical and thermal hyperalgesia and allodynia develops in which there is a lowering of pain threshold and an enhanced reflex withdrawal response of the hind-paw to touch, pressure or thermal stimuli. […] In the majority of animals the toes of the affected hind paw are held together and the foot turned slightly to one side; in some rats the toes are also curled under. The gait of the ligated rats varies, but limping is uncommon. […] The rats tend to be very sensitive to touch and may vocalise. Otherwise the general health an condition of the rats is good.
(§4) The effect of Compound A on mechanical hyperalgesia and allodynia is examined in the Seltzer model of neuropathic pain in the rat (Seltzer et al, 1990) as described above. With this model mechanical hyperalgesia and allodynia is induced in the ipsilateral (ligated) hindpaw approximately 1 day following surgery and persists for some weeks. Mechanical hyperalgesia is assessed by measuring paw withdrawal thresholds of both hindpaws to an increasing pressure stimulus using an Analgesymeter (Ugo-Basile, Milan). Mechanical allodynia is assessed by measuring withdrawal thresholds to non-noxious mechanical stimuli applied with von Frey hairs to the plantar surface of both hindpaws.
Compound A also affects the development of hyperalgesia following peri-operative dosing. […] The effect of the two doses of Compound A lasted for approximately 7 days by which time the degreee of hyperalgesia is similar to that seen in vehicle treated animals.
All animals received administration of vehicle or compound 1 h prior to surgery (pre) and 5 h following surgery (post).

[2] = tested on: mechanical hyperalgesia in the Seltzer model of neuropathic pain in the rat; test: Seltzer model, established neuropathic hyperalgesia, repeated administration of Compound A; assay type: in vivo
Description: as §1, §2, §3, §4
Inhibition of MMP7 may also reduce established mechanical hyperalgesia. 7 days following ligation ipsilateral paw withdrawal thresholds are reduced to approximately 65 g compared to contralteral readings of approximately 100 g, indicating mechanical hyperalgesia. Compound A (3 and 30 mg/kg) or vehicle (20% cremaphor/water) is then administered orally twice daily for 10 days. […]

Structure (SMILES): CC[C@H](C(=O)NO)[C@H](C(=O)N1CCCC[C@H]1C(=O)NC(C)C)c1ccc(Cl)cc1 [Compound A, (S)-1-[(2S,3S)-2-(4-Chloro-phenyl)-3-hydroxycarbamoyl-pentanoyl]-piperidine-2-carboxylic acid isopropylamide]
- duration of the effect of the two doses ([1]; 30 mg/kg oral 1 h prior to and 5 h following surgery): approximately 7 days
- degree of hyperalgesia (ipsilateral paw withdrawal thresholds versus vehicle) ([1]; 30 mg/kg oral 1 h prior to surgery and again 5 h following surgery): significant reduction in the degree of hyperalgesia
- Paw withdrawal threshold ([1]; Compound A 30 mg/kg oral 1 h pre surgery + Compound A 5 h post, day 1 of study): 79.2 ± 2.4 g
- Paw withdrawal threshold ([1]; Compound A 30 mg/kg oral 1 h pre surgery + Compound A 5 h post, day 2 of study): 81.7 ± 2.1 g
- Paw withdrawal threshold ([1]; Compound A 30 mg/kg oral 1 h pre surgery + Compound A 5 h post, day 3 of study): 80.0 ± 2.2 g
- Paw withdrawal threshold ([1]; Compound A 30 mg/kg oral 1 h pre surgery + Compound A 5 h post, day 4 of study): 77.5 ± 1.1 g
- Paw withdrawal threshold ([1]; Compound A 30 mg/kg oral 1 h pre surgery + Compound A 5 h post, day 6 of study): 73.3 ± 3.1 g
- Paw withdrawal threshold ([1]; Compound A 30 mg/kg oral 1 h pre surgery + Compound A 5 h post, day 7 of study): 70.8 ± 2.4 g
- Paw withdrawal threshold ([1]; Compound A 30 mg/kg oral 1 h pre surgery + Compound A 5 h post, pre-surgery (baseline)): 101.7 ± 1.1 g
- Paw withdrawal threshold ([1]; Compound A 30 mg/kg oral 1 h pre surgery + vehicle 5 h post, day 1 of study): 75.8 ± 2.4 g
- Paw withdrawal threshold ([1]; Compound A 30 mg/kg oral 1 h pre surgery + vehicle 5 h post, day 2 of study): 69.2 ± 3.7 g
- Paw withdrawal threshold ([1]; Compound A 30 mg/kg oral 1 h pre surgery + vehicle 5 h post, day 3 of study): 70.8 ± 2.0 g
- Paw withdrawal threshold ([1]; Compound A 30 mg/kg oral 1 h pre surgery + vehicle 5 h post, day 4 of study): 67.5 ± 1.7 g
- Paw withdrawal threshold ([1]; Compound A 30 mg/kg oral 1 h pre surgery + vehicle 5 h post, day 6 of study): 70.0 ± 2.2 g
- Paw withdrawal threshold ([1]; Compound A 30 mg/kg oral 1 h pre surgery + vehicle 5 h post, day 7 of study): 65.0 ± 3.2 g
- Paw withdrawal threshold ([1]; Compound A 30 mg/kg oral 1 h pre surgery + vehicle 5 h post, pre-surgery (baseline)): 105.0 ± 1.3 g
- inhibition of hyperalgesia ([1]; single dose 1 h prior to surgery): significant inhibition of hyperalgesia only at 1 day post surgery
- ipsilateral paw withdrawal threshold ([2]; 3 mg/kg orally twice daily for 10 days starting 7 days after ligation, day 1 of study): 62.5 ± 2.1 g
- ipsilateral paw withdrawal threshold ([2]; 3 mg/kg orally twice daily for 10 days starting 7 days after ligation, day 2 of study): 68.3 ± 1.1 g
- ipsilateral paw withdrawal threshold ([2]; 3 mg/kg orally twice daily for 10 days starting 7 days after ligation, day 3 of study): 67.5 ± 2.5 g
- ipsilateral paw withdrawal threshold ([2]; 3 mg/kg orally twice daily for 10 days starting 7 days after ligation, day 4 of study): 80.0 ± 2.2 g
- ipsilateral paw withdrawal threshold ([2]; 3 mg/kg orally twice daily for 10 days starting 7 days after ligation, day 5 of study): 80.0 ± 3.4 g
- ipsilateral paw withdrawal threshold ([2]; 3 mg/kg orally twice daily for 10 days starting 7 days after ligation, day 6 of study): 80.8 ± 2.4 g
- ipsilateral paw withdrawal threshold ([2]; 3 mg/kg orally twice daily for 10 days starting 7 days after ligation, day 7 of study): 80.8 ± 2.4 g
- ipsilateral paw withdrawal threshold ([2]; 3 mg/kg orally twice daily for 10 days starting 7 days after ligation, day 8 of study): 80.8 ± 2.4 g
- ipsilateral paw withdrawal threshold ([2]; 3 mg/kg orally twice daily for 10 days starting 7 days after ligation, day 9 of study): 75.8 ± 3.5 g
- ipsilateral paw withdrawal threshold ([2]; 3 mg/kg orally twice daily for 10 days starting 7 days after ligation, day 10 of study): 81.7 ± 3.1 g
- ipsilateral paw withdrawal threshold ([2]; 3 mg/kg orally twice daily for 10 days starting 7 days after ligation, day 11 of study): 76.7 ± 2.1 g
- ipsilateral paw withdrawal threshold ([2]; 3 mg/kg orally twice daily for 10 days starting 7 days after ligation, day 12 of study): 78.3 ± 2.5 g
- ipsilateral paw withdrawal threshold ([2]; 3 mg/kg orally twice daily for 10 days starting 7 days after ligation, day 13 of study): 79.2 ± 2.4 g
- ipsilateral paw withdrawal threshold ([2]; 3 mg/kg orally twice daily for 10 days starting 7 days after ligation, day 14 of study): 75.8 ± 3.5 g
- ipsilateral paw withdrawal threshold ([2]; 3 mg/kg orally twice daily for 10 days starting 7 days after ligation, day 15 of study): 76.7 ± 2.5 g
- ipsilateral paw withdrawal threshold ([2]; 3 mg/kg orally twice daily for 10 days starting 7 days after ligation, day 18 of study): 75.8 ± 2.4 g
- ipsilateral paw withdrawal threshold ([2]; 3 mg/kg orally twice daily for 10 days starting 7 days after ligation, day 21 of study): 74.2 ± 1.5 g
- ipsilateral paw withdrawal threshold ([2]; 3 mg/kg orally twice daily for 10 days starting 7 days after ligation, day 23 of study): 70.0 ± 1.8 g
- ipsilateral paw withdrawal threshold ([2]; 3 mg/kg orally twice daily for 10 days starting 7 days after ligation, predose): 65.8 ± 0.8 g
- ipsilateral paw withdrawal threshold ([2]; 30 mg/kg orally twice daily for 10 days starting 7 days after ligation, day 1 of study): 68.3 ± 2.1 g
- ipsilateral paw withdrawal threshold ([2]; 30 mg/kg orally twice daily for 10 days starting 7 days after ligation, day 2 of study): 68.3 ± 1.7 g
